Experimental data taken from US20160168140A1, “HETEROCYCLIC COMPOUNDS AS ANTIBIOTIC POTENTIATORS” (priority 2014, published 2016).

These compounds were tested on Acinetobacter baumannii (Ab23) (assay: MIC shift assay of antibiotics (broth microdilution)). Settings: compound concentration 1 μM; fold shift of colistin MIC; nc = no changeover or no shift.
Format: cell-based
Procedure: Minimum inhibitory concentration (MIC) shift assays were performed to determine if the test compounds could alter the MIC of existing antibacterial drugs (e.g., ciprofloxacin and colistin) for E. coli, Acinetobacter baumannii, Klebsiella pneumoniae, Pseudomonas aeruginosa, and Enterobacter cloacae. The MIC shift assay is based on the standard broth microdilution MIC determination protocol of Wiegand et al, Nat Protoc. 3(2):163-75 (2008), with slight modifications that allow for the screening of up to seven test compounds in a single plate.
On the day before an assay, bacteria were grown overnight in cation-adjusted Mueller Hinton broth (CAMHB; Teknova, Hollister, Calif.) at 37° C. in an orbital shaker and sub-cultured at a 1:200 dilution the following morning. The cells were grown to OD600=0.5 to 0.8 and then diluted to OD600=0.01. From a serial dilution of each antibiotic at (50 μL of 2× concentrated stock solutions) several concentrations were added to the wells of a sterile, transparent round-bottom 96-well plate (Phenix Research Products, Candler, N.C.), and diluted cells (50 μL) were added to the plates for a starting OD600 of 0.005. […] A row of wells lacking test compound but containing the antibiotic was used to determine the MIC of that antibiotic alone. A column of wells lacking both antibiotic and test compound served as a growth control, and an additional column containing only CAMHB was included as a sterile blank control.
The plates were incubated for 18 to 20 h at 37° C. in an orbital shaker, and the cell density (OD600) was determined the following day in a microplate reader (PolarStar Optima, BMG Labtech). The MIC shift was determined by comparing the MIC of the antibiotic alone to the MIC of the antibiotic plus test compound.

Compound	colistin MIC shift, Ab23 at (compd concentration)
FC(F)(F)c1cccc(-c2c[nH]c3cc(Cl)c(Cl)cc23)c1 [compound 431]	4x (1 μM);

Same assay, conditions: compound concentration 2 μM; fold shift of colistin MIC; nc = no changeover or no shift

Compound	colistin MIC shift, Ab23 at (compd concentration)
Cc1cccc2c(NCCCN(C)C)nc(-c3cccc(-c4cc(F)cc(C(F)(F)F)c4)c3)nc12 [compound 344]	8-16x
Clc1ccc(-c2c[nH]c3cc(Cl)c(Cl)cc23)cc1Cl [compound 432]	8x
CN(C)CC(=O)n1cc(-c2ccc(Cl)c(Cl)c2)c2cc(Cl)ccc21 [compound 362]	16x
FC(F)(F)c1ccc2c(-c3ccc(Cl)c(Cl)c3)n[nH]c2c1 [compound 441]	≧16x
FC(F)(F)c1cccc(-c2c[nH]c3cc(Cl)c(Cl)cc23)c1 [compound 431]	≧16x (2 μM)
Clc1ccc(/C=C/c2c[nH]c3ccc(Br)cc23)cc1Cl [compound 363]	≧16x (2 μM)
O=C(Nc1ccc(Cl)c(Cl)c1)c1c[nH]c2cc(Br)ccc12 [compound 424]	4x
FC(F)(F)c1ccc2c(-c3ccc4ccccc4c3)n[nH]c2c1 [compound 540]	4x
CCN(CC)CCCNc1nc(-c2cc(Br)cc(C(F)(F)F)c2)nc2c(C)cccc12 [compound 352]	8-16x

Same assay, conditions: compound concentration 4 μM; fold shift of colistin MIC; nc = no changeover or no shift

Compound	colistin MIC shift, Ab23 at (compd concentration)
FC(F)(F)c1ccc2c(-c3cccc(Cl)c3Cl)n[nH]c2c1 [compound 543]	1x
Cc1ccc(Cn2cc(-c3nc(NCCCN(C)C)c4cccc(C)c4n3)c3cccc(Cl)c32)cc1 [compound 573]	16x
Fc1ccc2c(/C=C/c3cccc(C(F)(F)F)c3)c[nH]c2c1 [compound 396]	8x
CN(C)CCCNc1nc(/C=C/c2cc(Cl)ccc2Cl)nc2c(C(F)(F)F)cccc12 [compound 335]	16x
CN1CCN(CC(=O)n2cc(-c3ccc(Cl)c(Cl)c3)c3cc(Cl)ccc32)CC1 [362g]	16x
CN(C)CCCn1cc(-c2ccc(Cl)c(Cl)c2)c2cc(Cl)ccc21 [compound 359]	16x
Cc1cccc2c(NCCCN(C)C)nc(-c3cccc(-c4ccc(Cl)c(Cl)c4)c3)nc12 [compound 468]	16-32x
Cc1cccc2c(NCCCN(C)C)nc(-c3cn(Cc4ccc(Cl)cc4)c4c(Cl)cccc34)nc12 [compound 577]	16x
O=[N+]([O-])c1ccc2[nH]cc(/C=C/c3ccc(Cl)c(Cl)c3)c2c1 [compound 379]	8x
Fc1ccc2c(/C=C/c3cc(Cl)c(Cl)c(Cl)c3)c[nH]c2c1 [compound 397]	8x
FC(F)(F)c1cc(Cl)cc(-c2c[nH]c3cc(Cl)c(Cl)cc23)c1 [compound 434]	32x
Cc1c(Br)ccc2c(NCCCN(C)C)nc(-c3cc(Br)cc(C(F)(F)F)c3)nc12 [compound 512]	64x
CCN(CC)CCCC(C)Nc1nc(-c2cc(-c3ccc(C(F)(F)F)cc3)cc(C(F)(F)F)c2)nc2c(C)cccc12 (centres unmarked) [compound 495]	16x
CN(C)CCCNc1nc(-c2cn(Cc3ccccc3)c3c(Cl)cccc23)nc2c(Br)cccc12 [compound 569]	8x
Cc1cccc2c(NCCCN)nc(-c3cc(-c4ccccc4)cc(C(F)(F)F)c3)nc12 [524i]	128x
Cc1cccc2c(NCCCN(C)C)nc(-c3cc(-c4cccc(C(F)(F)F)c4)cc(C(F)(F)F)c3)nc12 [compound 494]	16x

Compound	colistin MIC shift, Ab23 at (compd concentration)
Clc1ccc(/C=C/c2c[nH]c3ccc(Br)cc23)cc1Cl [compound 363]	32-64x (4 μM);
CCN(CC)CCCC(C)Nc1nc(/C=C/c2ccc(Cl)c(Cl)c2)nc2c(C)cccc12 (centres unmarked) [compound 313]	8x
FC(F)(F)c1ccc2c(-c3ccc(Cl)c(Cl)c3)n[nH]c2c1 [compound 390, 3-(3,4-dichlorophenyl)-6-(trifluoromethyl)-1H-indazole]	16x
CCN(CC)CCCC(C)Nc1nc(-c2cccc(-c3cc(Cl)cc(Cl)c3)c2)nc2c(C)cccc12 (centres unmarked) [compound 469]	16x
Fc1ccc2c(/C=C/c3cc(Br)cc(Br)c3)c[nH]c2c1 [compound 389]	16x
FC(F)(F)c1ccc2c(/C=C/c3ccc(Cl)c(Cl)c3)c[nH]c2c1 [compound 364]	32-64x
Cc1cccc2c(NCCCN(C)C)nc(-c3cn(Cc4ccccc4)c4cc(Cl)ccc34)nc12 [compound 586]	16x
Cc1cc(-c2nc(NCCCN(C)C)c3cccc(C)c3n2)cc(C(F)(F)F)c1 [compound 507]	8x
Fc1ccc2c(/C=C/c3ccc(C(F)(F)F)cc3)c[nH]c2c1 [compound 387]	16x
CCN(CC)CCCC(C)Nc1nc(-c2cn(Cc3ccccc3)c3c(Cl)cccc23)nc2c(Br)cccc12 (racemic) [compound 568]	4x
CCN(CC)CCCC(C)Nc1nc(-c2cn(Cc3ccccc3)c3c(Cl)cccc23)nc2c(F)cccc12 (racemic) [compound 564]	4x
FC(F)(F)c1cccc2[nH]cc(/C=C/c3ccc(Cl)c(Cl)c3)c12 [compound 371]	32x
Cc1cccc2c(NCCCN(C)C)nc(-c3cc(F)cc(C(F)(F)F)c3)nc12 [compound 508]	8x
FC(F)(F)c1cccc(-c2ccc3[nH]cc(-c4ccc(Cl)c(Cl)c4)c3c2)c1 [compound 438]	2x
Fc1ccc2c(/C=C/c3cc(Cl)ccc3Cl)c[nH]c2c1 [compound 384]	8-16x
Clc1ccc(CCc2c[nH]c3ccc(Br)cc23)cc1Cl [compound 411]	8x

Same assay, conditions: compound concentration 8 μM; fold shift of colistin MIC; nc = no changeover or no shift

Compound	colistin MIC shift, Ab23 at (compd concentration) [x]
CCN(CC)CCCC(C)Nc1nc(-c2cc(Br)c3ccccc3c2)nc2c(C)cccc12 (centres unmarked) [compound 445]	16
CN(C)CC(=O)n1nc(-c2ccc(Cl)c(Cl)c2)c2ccc(C(F)(F)F)cc21 [559b]	8
CCN(CC)CCCC(C)Nc1nc(/C=C/c2cccc(Br)c2)nc2cc(Cl)ccc12 (racemic) [compound 306]	4

Same assay, conditions: compound concentration 10 μM; fold shift of colistin MIC; nc = no changeover or no shift

Compound	colistin MIC shift, Ab23 at (compd concentration) [x]
Clc1ccc(-c2n[nH]c3cc(Br)ccc23)cc1Cl [compound 559]	8
Fc1cc(-c2n[nH]c3cc(C(F)(F)F)ccc23)cc(C(F)(F)F)c1 [compound 550]	64
CCN(CC)CCCC(C)Nc1nc(-c2cn(Cc3ccccc3)c3c(Cl)cccc23)nc2c(-c3ccncc3)cccc12 (racemic) [compound 570]	2
FC(F)(F)c1cc(Cl)cc(-c2n[nH]c3cc(C(F)(F)F)ccc23)c1 [compound 551]	32
FC(F)(F)c1cccc(-c2n[nH]c3cc(C(F)(F)F)ccc23)c1 [compound 536]	16
Fc1cc(C(F)(F)F)ccc1-c1cccc(-c2n[nH]c3cc(C(F)(F)F)ccc23)c1 [compound 531]	4
CCN(CC)CCCC(C)Nc1nc(-c2cn(Cc3cccc(C)c3)c3c(Cl)cccc23)nc2c(C)cccc12 (racemic) [compound 574]	8
Fc1cc(-c2cccc(-c3n[nH]c4cc(C(F)(F)F)ccc34)c2)ccc1C(F)(F)F [compound 528]	8
FC(F)(F)c1ccc2c(-c3ccc(Cl)c(Cl)c3)nn(Cc3cccc(Cl)c3)c2c1 [compound 545]	1
CCN(CC)CCCC(C)Nc1nc(-c2cccc(-c3ccccc3)c2)nc2c(Cl)cccc12 (centres unmarked) [compound 485]	8
CCN(CC)CCCC(C)Nc1nc(-c2cc(N3CCOCC3)cc(C(F)(F)F)c2)nc2c(C)cccc12 (centres unmarked) [compound 500]	4
